# Measurements from patent US20250059180A1 (DONG WHA PHARM. CO., LTD., priority 2022, published 2025).
# Read-outs that look alike come from different tables or passages of the source.
# System: Pfeiffer cells, lymphoma cells having EZH2 mutation (A677G)
# Assay: Proliferation inhibition of cells of hematologic malignancies (CCK-8, 11 days)
# Assay type: cell-based
# Settings: 11 days culture, read-out: Cell proliferation inhibitory effect (IC50)
# Method in brief: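 Pfeiffer lymphoma cells (EZH2 A677G) in RPMI1640 with 10% FBS were seeded at 10,000 cells/well and exposed to test material for 11 days, with compound replaced every 3–4 days. Viability was read by CCK-8 absorbance at 450 nm, and IC50 was derived by non-linear regression curve fitting.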
SMILES,"IC50 (Homo sapiens, Pfeiffer, 264 h) [nM]",IC50 [nM]
"CSc1cc(C)[nH]c(=O)c1CNC(=O)c1cc(-c2ccc(N3CCOCC3)nc2)c2c(c1C)OC(C)(C1CCN(CC(F)(F)F)CC1)O2 (centres unmarked) [Compound 63, 2,4-dimethyl-N-((6-methyl-4-(methylthio)-2-oxo-1,2-dihydropyridin-3-yl)methyl)-7-(6-morpholinopyridin-3-yl)-2-(1-(2,2,2-trifluoro)piperidin-4-yl)benzo[d][1,3]dioxole-5-carboxamide]",,≥ 100
"CSc1cc(C)[nH]c(=O)c1CNC(=O)c1cc(-c2ccc3c(c2)OCO3)c2c(c1C)OC(C)(C1CCN(CC(F)(F)F)CC1)O2 (centres unmarked) [Compound 94, 2,7-dimethyl-N-((6-methyl-4-(methylthio)-2-oxo-1,2-dihydropyridin-3-yl)methyl)-2-(1-(2,2,2-trifluoroethyl)piperidin-4-yl)-[4,5′-bibenzo[d][1,3]dioxol]-6-carboxamide]",10 to 100,
"CSc1cc(C)[nH]c(=O)c1CNC(=O)c1cc(-c2ccc(N3CCCCC3)cc2)c2c(c1C)OC(C)(C1CCN(CC(F)(F)F)CC1)O2 (centres unmarked) [Compound 90, 2,4-dimethyl-N-((6-methyl-4-(methylthio)-2-oxo-1,2-dihydropyridin-3-yl)methyl)-7-(4-(piperidin-1-yl)phenyl)-2-(1-(2,2,2-trifluoroethyl)piperidin-4-yl)benzo[d][1,3]dioxole-5-carboxamide]",10 to 100,
"CSc1cc(C)[nH]c(=O)c1CNC(=O)c1cc(-c2ccc(N3CCCCC3)nc2)c2c(c1C)OC(C)(C1CCN(CC(F)(F)F)CC1)O2 (centres unmarked) [Compound 91, 2,4-dimethyl-N-((6-methyl-4-(methylthio)-2-oxo-1,2-dihydropyridin-3-yl)methyl)-7-(6-(piperidin-1-yl)pyridin-3-yl)-2-(1-(2,2,2-trifluoroethyl)piperidin-4-yl)benzo[d][1,3]dioxole-5-carboxamide]",≥ 100,
"CSc1cc(C)[nH]c(=O)c1CNC(=O)c1cc(-c2ccc(N3C[C@@H](C)O[C@@H](C)C3)nc2)c2c(c1C)OC(C)(C1CCN(CC(F)(F)F)CC1)O2 (stereo partly drawn) [Compound 33, 7-(6-((2S,6R)-2,6-dimethylmorpholino)pyridin-3-yl)-2,4-dimethyl-N-((6-methyl-4-(methylthio)-2-oxo-1,2-dihydropyridin-3-yl)methyl)-2-(1-(2,2,2-trifluoroethyl)piperidin-4-yl)benzo[d][1,3]dioxole-5-carboxamide]",≤ 10,
"CSc1cc(C)[nH]c(=O)c1CNC(=O)c1cc(-c2ccc(F)nc2F)c2c(c1C)OC(C)([C@H]1CC[C@H](N(C)C)CC1)O2 (stereo partly drawn) [Compound 14, 7-(2,6-difluoropyridin-3-yl)-2-(trans-4-(dimethylamino)cyclohexyl)-2,4-dimethyl-N-((6-methyl-4-(methylthio)-2-oxo-1,2-dihydropyridin-3-yl)methyl)benzo[d][1,3]dioxole-5-carboxamide]",≤ 10,
"CSc1cc(C)[nH]c(=O)c1CNC(=O)c1cc(-c2ccc(N3C[C@@H](C)O[C@@H](C)C3)nc2)c2c(c1C)OC(C)(C1CCN(CCc3ccccc3)CC1)O2 (single isomer, unassigned) [Compound 56]",,≥ 100
"CCN(C)c1ncc(-c2cc(C(=O)NCc3c(SC)cc(C)[nH]c3=O)c(C)c3c2OC(C)(C2CCN(CC(F)F)CC2)O3)cn1 (single isomer, unassigned) [Compound 82, 2-(1-(2,2-difluoroethyl)piperidin-4-yl)-7-(2-(ethyl(methyl)amino)pyrimidin-5-yl)-2,4-dimethyl-N-((6-methyl-4-(methylthio)-2-oxo-1,2-dihydropyridin-3-yl)methyl)benzo[d][1,3]dioxole-5-carboxamide]",,10 to 100
"CCN1CCC(C2(C)Oc3c(-c4cnc(N5CCOCC5)nc4)cc(C(=O)NCc4c(SC)cc(C)[nH]c4=O)c(C)c3O2)CC1 (single isomer, unassigned) [Compound 73, 2-(1-ethylpiperidin-4-yl)-2,4-dimethyl-N-((6-methyl-4-(methylthio)-2-oxo-1,2-dihydropyridin-3-yl)methyl)-7-(2-morpholinopyrimidin-5-yl)benzo[d][1,3]dioxole-5-carboxamide]",,≤ 10

# Results, then the molecule that gave them:
"IC50 (Homo sapiens, Pfeiffer, 264 h) [nM]",IC50 [nM],SMILES
≤ 10,,"CSc1cc(C)[nH]c(=O)c1CNC(=O)c1cc(-c2cnc(N3C[C@@H](C)O[C@@H](C)C3)nc2)c2c(c1C)OC(C)(C1CCN(CC(F)(F)F)CC1)O2 (stereo partly drawn) [Compound 38, 7-(2-((2S,6R)-2,6-dimethylmorpholino)pyrimidin-5-yl)-2,4-dimethyl-N-((6-methyl-4-(methylthio)-2-oxo-1,2-dihydropyridin-3-yl)methyl)-2-(1-(2,2,2-trifluoroethyl)piperidin-4-yl)benzo[d][1,3]dioxole-5-carboxamide]"
≤ 10,,"CSc1cc(C)[nH]c(=O)c1CNC(=O)c1cc(-c2ccc(N3CC(C)CC(C)C3)nc2)c2c(c1C)OC(C)([C@H]1CC[C@H](N(C)C)CC1)O2 (stereo partly drawn) [Compound 16, 2-(trans-4-(dimethylamino)cyclohexyl)-7-(6-(3,5-dimethylpiperidin-1-yl)pyridin-3-yl)-2,4-dimethyl-N-((6-methyl-4-(methylthio)-2-oxo-1,2-dihydropyridin-3-yl)methyl)benzo[d][1,3]dioxole-5-carboxamide]"
≤ 10,,"CSc1cc(C)[nH]c(=O)c1CNC(=O)c1cc(-c2ccc(F)cc2)c2c(c1C)OC(C)([C@H]1CC[C@H](N(C)C)CC1)O2 (stereo partly drawn) [Compound 10, 2-(trans-4-(dimethylamino)cyclohexyl)-7-(4-fluorophenyl)-2,4-dimethyl-N-((6-methyl-4-(methylthio)-2-oxo-1,2-dihydropyridin-3-yl)methyl)benzo[d][1,3]dioxole-5-carboxamide]"
≤ 10,,"CSc1cc(C)[nH]c(=O)c1CNC(=O)c1cc(-c2ccc(N3CCC(F)(F)CC3)nc2)c2c(c1C)OC(C)([C@H]1CC[C@H](N(C)C)CC1)O2 (stereo partly drawn) [Compound 3, 7-(6-(4,4-difluoropiperidin-1-yl)pyridin-3-yl)-2-(trans-4-(dimethylamino)cyclohexyl)-2,4-dimethyl-N-((6-methyl-4-(methylthio)-2-oxo-1,2-dihydropyridin-3-yl)methyl)benzo[d][1,3]dioxole-5-carboxamide]"
,≥ 100,"CSc1cc(C)[nH]c(=O)c1CNC(=O)c1cc(-c2ccc(N3C[C@@H](C)O[C@@H](C)C3)nc2)c2c(c1C)OC(C)(C1CCN(CC(F)F)CC1)O2 (single isomer, unassigned) [Compound 48]"
≤ 10,,"CSc1cc(C)[nH]c(=O)c1CNC(=O)c1cc(-c2ccc(N3C[C@@H](C)O[C@@H](C)C3)nc2)c2c(c1C)OC(C)(C1CCN(CC(F)F)CC1)O2 (stereo partly drawn) [Compound 46, 2-(1-(2,2-difluoroethyl)piperidin-4-yl)-7-(6-((2S,6R)-2,6-dimethylmorpholino)pyridin-3-yl)-2,4-dimethyl-N-((6-methyl-4-(methylthio)-2-oxo-1,2-dihydropyridin-3-yl)methyl)benzo[d][1,3]dioxole-5-carboxamide]"
≤ 10,,"CSc1cc(C)[nH]c(=O)c1CNC(=O)c1cc(-c2cnc(N3C[C@@H](C)O[C@@H](C)C3)nc2)c2c(c1C)OC(C)([C@H]1CC[C@H](N(C)C)CC1)O2 (stereo partly drawn) [Compound 2, 2-(trans-4-(dimethylamino)cyclohexyl)-7-(2-((2S,6R)-2,6-dimethylaminomorpholino)pyrimidin-5-yl)-2,4-dimethyl-N-((6-methyl-4-(methylthio)-2-oxo-1,2-dihydropyridin-3-yl)methyl)benzo[d][1,3]dioxole-5-carboxamide]"
≤ 10,,"COC1CN([C@H]2CC[C@H](C3(C)Oc4c(-c5ccc(N6C[C@@H](C)O[C@@H](C)C6)nc5)cc(C(=O)NCc5c(SC)cc(C)[nH]c5=O)c(C)c4O3)CC2)C1 (stereo partly drawn) [Compound 106, 7-(6-((2S,6R)-2,6-dimethylmorpholino)pyridin-3-yl)-2-(trans-4-(3-methoxyazetidin-1-yl)cyclohexyl)-2,4-dimethyl-N-((6-methyl-4-(methylthio)-2-oxo-1,2-dihydropyridin-3-yl)methyl)benzo[d][1,3]dioxole-5-carboxamide]"
,≤ 10,"CSc1cc(C)[nH]c(=O)c1CNC(=O)c1cc(-c2ccc(N3C[C@@H](C)O[C@@H](C)C3)nc2)c2c(c1C)OC(C)(C1CCN(CC(F)F)CC1)O2 (single isomer, unassigned) [Compound 47]"
≤ 10,,"CSc1cc(C)[nH]c(=O)c1CNC(=O)c1cc(-c2cnc(N3CCC(F)(F)CC3)nc2)c2c(c1C)OC(C)([C@H]1CC[C@H](N(C)C)CC1)O2 (stereo partly drawn) [Compound 8, 7-(2-(4,4-difluoropiperidin-1-yl)pyrimidin-5-yl)-2-(trans-4-(dimethylamino)cyclohexyl)-2,4-dimethyl-N-((6-methyl-4-(methylthio)-2-oxo-1,2-dihydropyridin-3-yl)methyl)benzo[d][1,3]dioxole-5-carboxamide]"
,≥ 100,"CSc1cc(C)[nH]c(=O)c1CNC(=O)c1cc(-c2ccc(N3C[C@@H](C)O[C@@H](C)C3)nc2)c2c(c1C)OC(C)(C1CCN(C3CCCCC3)CC1)O2 (single isomer, unassigned) [Compound 54]"
